{"source": "patent US20260151457A1", "about": "“Peptides and Fragments for Treating Diabetes and Associated Metabolic Diseases” (Betavive Ltd., priority 2024, published 2026)", "key": {"STZ-treated mice": {"system": "STZ-treated mice", "test": "Intraperitoneal glucose tolerance test on STZ-treated mice treated with IGF-2", "assay_type": "in vivo", "method": "In this experiment, four STZ-treated mice were treated with 12,000 μg/kg/day of IGF-2 (four injections of 3000 μg/kg/day) 5 days and two mice were treated for 10 days. A glucose tolerance test was performed 50 days post-treatment with IGF-2 by challenging the treated mice with a 2 grams/kg dose of glucose and determining the blood glucose level over a 180 minute time course. The blood glucose curves of the treated mice were compared to results for a saline control, and normal (nondiabetic) obese and normal (nondiabetic) lean mice based on published literature (Jorgensen et al., J. Am Assoc. Lab. Animal Sci 2017 56 (1): 95-97)."}, "db/db mice": {"system": "db/db mice", "test": "Histopathology and immunohistochemistry of pancreas islet cells in db/db mice treated with IGF-2", "assay_type": "in vivo", "method": "FIG. 27 provides results of histopathology and immunohistochemical studies showing the number of pancreas islet cells that test positive for insulin (left panel) and glucagon (right panel) in db/db mice. In this experiment, one group of db/db mice was injected with 12000 μg/kg of IGF-2 on each of 70 consecutive days, a second group of db/db mice was injected with saline, and a third group of db/db mice was a naïve control group. The mice were sacrificed for pathology 70 days after the end of the initial 70 day treatment.\nIn this experiment, one group of db/db mice (labeled X4) was injected with 12000 μg/kg of IGF-2 on each of 70 consecutive days, a second group of db/db mice (labeled X1) was injected with 3000 μg/kg of IGF-2 on each of 70 consecutive days, and a third group of db/db mice (labeled control) was injected with saline. The mice were sacrificed for pathology 70 days after the end of the initial 70 day treatment. […] The control panels show a positive stain for insulin, which increases in intensity in the 3000 μg/kg/day mice, and increases again in intensity in the 12,000 μg/kg/day mice."}, "Human pancreatic islets": {"system": "Human pancreatic islets", "test": "Peptides efficacy on human pancreatic islets (IHC, digital quantitative pathological analysis)", "assay_type": "cell-based", "conditions": "IGF-2 500 nM, Peptide-20 1000 nM, five days", "method": "Human pancreatic islets, obtained from Prodo Labs, were cultured in Prodo Labs PIM(S) media and maintained at 37° C. with 5% CO2 to ensure optimal viability. The islets were treated with IGF-2 (500 nM) and Peptide-20 (1000 nM) for five days under continuous exposure. After treatment, islets were collected and fixed in 4% paraformaldehyde (PFA) to preserve cellular and structural integrity. The samples were then processed for formalin-fixed paraffin-embedded (FFPE) histology. Sectioned islets were stained using immunohistochemistry (IHC) with specific markers to assess islet integrity, β-cell function, and proliferation. Microscopic Digital Quantitative Pathological Analysis provided critical insights into the effects of IGF-2 and Peptide-20 on islet structure and function. […] These findings establish Peptide-20 as a strong candidate for novel diabetes therapies aimed at restoring islet function and reversing β-cell loss. […] Their ability to enhance β-cell survival and proliferation positions them as strong candidates for the development of novel regenerative therapies, paving the way for innovative drug development aimed at reversing diabetes and restoring endogenous insulin production."}}, "data": [{"substance": "insulin-like growth factor 2 [IGF-2]", "values": [{"measurement": "Response to the glucose tolerance test (permanently cured mice)", "setting": "STZ-treated mice; 12,000 μg/kg/day for 5 or 10 days, test 50 days post-treatment, 2 grams/kg glucose, 180 minutes", "result": "fell between the glucose tolerance results from the literature for non-diabetic obese mice and non-diabetic lean mice"}, {"measurement": "Glucose levels in the glucose tolerance test (Mouse 01, not permanently cured)", "setting": "STZ-treated mice; 12,000 μg/kg/day, test 50 days post-treatment, 2 grams/kg glucose", "result": "higher than the normal obese mouse"}, {"measurement": "Number of IGF-2-treated mice permanently cured", "setting": "STZ-treated mice; six STZ mice treated with 12,000 μg/kg/day, four for 5 days and two for 10 days", "result": "Five"}, {"measurement": "Increase in the number of insulin-positive cells", "setting": "db/db mice; 12000 μg/kg on 70 consecutive days, sacrificed 70 days after end of treatment", "result": "more than 50%"}, {"measurement": "Insulin positive cells (immunohistochemical staining)", "setting": "db/db mice; 3000 and 12000 μg/kg on 70 consecutive days", "result": "increase in insulin positive cells in a dose-dependent manner"}, {"measurement": "Pancreatic islet regeneration, integrity and function", "setting": "Human pancreatic islets", "result": "significant regenerative potential"}]}]}
